One assay has as its system caspase-8. Nature of the assay: Caspase-8 activity (Ac-IETD-AFC cleavage) in SH-SY5Y cells. The class given is cell-based, human. The settings on record: 1 mM, 96 h. Here is the method: Measurement of the activities of the various caspases is based on the ability of the caspases to cleave specific fluorescent substrates: Ac-DEVD-AFC for caspase-3, Ac-IETD-AFC for caspase-8, or Ac-LEHD-AFC for caspase-9. SH-SY5Y neuronal cells were incubated in 48-well plates with either furosemide pyridinium (1 mM) for 96 h or with MPP+ (1 mM) for 6 h, then 24 h of incubation with no MPP+. After incubation, the cells were trypsinized, then rinsed with PBS and counted, then harvested in 100 μl of buffer containing 30 mM HEPES, 0.3 mM EDTA, 100 mM NaCl, 0.15% Triton X-100, and 10 mM DTT. The cell extract was then incubated for 1 hour at 37° C. with the specific substrate (100 μM) in a 96-well plate. Fluorescence was measured at λex400 nm and λem505 nm in a fluorescence detection plate reader (TECAN Infinite M1000) (Yue et al., supra). The results were expressed as percentages relative to the measured activity of cells cultured under the same conditions and not subjected to any treatment.

Assay [1] relates to mitochondria isolated from rat striatum. Nature of the assay: Respiratory control (oxygen consumption) of isolated striatum mitochondria. The class given is biochemical. The method, then: (§1) The animal was then decapitated in order to collect from the brain either the cortex or the striatum, which were quickly placed in a Potter Elvejhem® containing 6 ml of extraction buffer at 4° C. (250 mM sucrose, 40 mM KCl, 2 mM EGTA, lmg/ml BSA, 20 mM Tris, pH=7.2). This mixture was homogenized to break open the cells and release the mitochondria and then centrifuged at 2000 g for 8 minutes to remove the larger membrane debris and the nuclei from the pellet. The supernatant was then recovered and centrifuged at 13,000 g for 11 minutes. The supernatant was discarded while the pellet containing a mitochondria-rich fraction was resuspended in 500 μl of respiration buffer at 4° C. (300 mM D-mannitol, 10 mM KCl, 10 mM KH2PO4, 5 mM MgCl2, pH=7.2). […]
Added to the polarography chamber (Hansatech) were 30 μl of mitochondria solution (0.2 mg), 460 μL of respiration buffer, 5 μl of test compound solution (meaning MPP+ or furosemide pyridinium) (or its solubilizing solvent). […] The effect of the compound on respiratory control was evaluated (ratio of stage 3 to 4), which corresponds to the coupling of the respiratory chain, or in other words the ATP synthesis at complex V and the oxygen consumption due to complexes I to IV. The results are expressed as percentages of the value measured for mitochondria not treated with the test compound (but treated with the solubilizing solvent).

The test system of assay [2] is respiratory chain complexes II-V of rat cerebral cortex mitochondria. Nature of the assay: Respiratory control after induction of complex II by succinate and inhibition of complex I by rotenone. The class given is biochemical. Conditions: 1 mM, succinate. The method, then:
as §1
Added to the polarography chamber (Hansatech) were 30 μl of mitochondria solution (0.2 mg), 460 μL of respiration buffer, 5 μl of test compound solution (meaning MPP+ or furosemide pyridinium) (or its solubilizing solvent). […] The effect of the compound on respiratory control was evaluated (ratio of stage 3 to 4), which corresponds to the coupling of the respiratory chain, or in other words the ATP synthesis at complex V and the oxygen consumption due to complexes I to IV. The results are expressed as percentages of the value measured for mitochondria not treated with the test compound (but treated with the solubilizing solvent). […]

For assay [3], the system named is alpha-synuclein in the striata. Nature of the assay: Immunolabeling of alpha-synuclein in coronal striatum sections of exposed rats. The class given is in vivo, rat. Conditions: 20 mg/kg/day oral 7 days, sacrificed 5 weeks after last dose. The source says: (§2) Male albino Sprague Dawley rats (adults weighing […]) were housed in a temperature-controlled room with free access to food and water.
A platform for electrophysiological and behavioral monitoring of the rats was used. For this, a subcutaneous implant (Data Science) was placed in the rats which allowed the EEG to be recorded by telemetry, leaving the animal completely free to move about. The cage was equipped with a video camera (10 frames per second) and an infrared light to allow recordation of the animal's activity. The EEG and video sequences were recorded in sequences of 10 seconds, and a set of variables was calculated for each sequence. The use of dedicated software allowed integration of these variables over the entire recording to detect changes in the animal's activity, EEG, and circadian rhythms. Each animal served as its own control because it was recorded for 5 days prior to furosemide pyridinium administration. The solution of furosemide pyridinium (20 mg) was dissolved in dimethylsulfoxide (DMSO, 200 μl) and then diluted with water (50 ml). The solution was replaced every day and administered for 7 days in the drinking water at a dose of 20 mg/kg. The rats were then sacrificed 5 weeks after the last dose. The rats were anesthetized with pentobarbital and infused intracardially with saline ([…]), then fixed with 4% paraformaldehyde. […]

The next assay relates to Sprague Dawley rats. Put plainly: EEG and sleep/arousal telemetry monitoring of exposed rats. The class given is in vivo, rat. Conditions: 20 mg/kg/day oral 7 days.
From the text: as §2
A platform for electrophysiological and behavioral monitoring of the rats was used. For this, a subcutaneous implant (Data Science) was placed in the rats which allowed the EEG to be recorded by telemetry, leaving the animal completely free to move about. The cage was equipped with a video camera (10 frames per second) and an infrared light to allow recordation of the animal's activity. The EEG and video sequences were recorded in sequences of 10 seconds, and a set of variables was calculated for each sequence. The use of dedicated software allowed integration of these variables over the entire recording to detect changes in the animal's activity, EEG, and circadian rhythms. Each animal served as its own control because it was recorded for 5 days prior to furosemide pyridinium administration. The solution of furosemide pyridinium (20 mg) was dissolved in dimethylsulfoxide (DMSO, 200 μl) and then diluted with water (50 ml). The solution was replaced every day and administered for 7 days in the drinking water at a dose of 20 mg/kg. The rats were then sacrificed 5 weeks after the last dose. The rats were anesthetized with pentobarbital and infused intracardially with saline ([…]), then fixed with 4% paraformaldehyde. After the infusion, the brain was removed and placed in NaCl (0.9%) at 4° C. The brain was frozen in Tissue Tek immersed in a cold isopentane bath. Coronal sections of eight microns were obtained using a cryostat and were processed for immunocytochemistry (labeling the alpha-synuclein).

Regarding `NS(=O)(=O)c1cc(C(=O)[O-])c(-[n+]2cccc(O)c2)cc1Cl` [furosemide pyridinium, 4-chloro-2-(3-hydroxypyridinium-1-yl)-5-sulfamoylbenzoate], in the assay with caspase-8, the “change in caspase-8 activity” value was “did not induce significant changes”. Besides, the “effect on striatal mitochondria versus cortex mitochondria” value in assay [1] (comparison striatum vs cortex) is “greater on striatal mitochondria”. In addition, the “oxygen consumption of striatum mitochondria” value in assay [1] (dose-response) is “decrease in oxygen consumption”. Further, the “respiratory control of cortex mitochondria after induction by complex II” value in assay [2] was “not modified”. For the same compound, in assay [3], the “alpha-synuclein in the striata (immunolabeling)” value is recorded as “significant increase”. In addition, in the assay on Sprague Dawley rats (five weeks after end of exposure), the “increase in number of REM sleep phases” value is 2 ×. Further, in the assay with Sprague Dawley rats (five weeks after end of treatment), the “sleep and arousal phases” value is on record as “do not indicate changes”. For the same compound, the “amplitude of the electroencephalogram” value with Sprague Dawley rats (five weeks after end of treatment vs before exposure) was “significant decrease”.

Values taken from patent US9744250B2, “Chemical model of a neurodegenerative disease, method for preparation and uses of same” (priority 2012, dated 2017).
